Values after ≈ are worked out from the molar mass of the structure shown. Like-named read-outs stand apart in the source and are kept apart here. Positions of bridges follow the written chain, without caps; N, C: chain ends. Non-standard residues stand in square brackets, D forms with d. Residues, ends and D or L forms follow the SMILES beside them. *: point of attachment. Benzoyl(4-Ph) = O=C(c1ccc(-c2ccccc2)cc1)*; Decanoyl(3R-OH) = CCCCCCC[C@@H](O)CC(=O)*; Phe(4-NH2) = Nc1ccc(C[C@H](N)C(=O)O)cc1; dIgl = N[C@@H](C(=O)O)C1Cc2ccccc2C1; Nonanoyl = CCCCCCCCC(=O)*; dDab = NCC[C@@H](N)C(=O)O; dDap = NC[C@@H](N)C(=O)O; Dab = NCC[C@H](N)C(=O)O
How the values were obtained:
[1] = in vitro; conditions: human
Description: Cytotoxicity of the synthesised peptides was evaluated by comparison with commercially available colistin (polymyxin E), polymyxin B (Sigma chemical Co., St. Louis, Mo., U.S.A.) and synthetic octapeptin C4 by conducting lactate dehydrogenase (LDH) assay. CC50 values calculated based on curve fitting of dose dependent inhibition of cell growth represented the cytotoxicity of the peptide. Human kidney 2 (HK2) cells were seeded as 2000 cells per well in a 384 well cell culture plate in a final volume of 20 μL in DMEM/F12 medium (Invitrogen #11330057), in which 10% of FBS was added. Cells were incubated for 24 hours at 37° C., 5% CO2 to allow cells to attach to the plates. Similar conditions were employed for HEK293 and HepG2 cytotoxicity assays.
Colistin and polymyxin B were tested from a range of 2 mM to 0.9 μM. 120 μL of the 1 mM stock solutions in water of each synthesised peptide were freeze-dried and processed for LDH assay. After freeze-dry procedure, the compounds were reconstituted into 600 μM solutions using culture media. All tested compounds were diluted from 600 μM to 0.27 μM in 3-fold dilutions. Then 20 μL of each dilution was added into 20 uL of culture medium in quadruplicate to reach the final concentrations. The cells were incubated with the compounds for 24 h at 37° C., 5% CO2. After the incubation, 5 μL of culture medium was added to 50 μL of LDH assay buffer and incubated for 1 h at room temperature. The absorbance was read at 450 nm using Polarstar. The data was then analysed by Prism software. […] Nephrotoxicity Assessment in Human Proximal Tubule Cells.

[2] = tested on: E. coli ATCC 25922; conditions: ATCC 25922
Method in brief: (§1)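 Mid-log cultures grown in Mueller Hinton broth at 37° C were tested by 2-fold broth microdilution at 5×10^5 CFU/mL final. Compounds were dissolved in water and tested over a final range of 32 to 0.015 μg/mL.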

[3] = tested on: K. pneumoniae ATCC 700603, MDR; conditions: ATCC 700603
Method in brief: as §1

[4] = tested on: K. pneumoniae ATCC BAA-2146, NDM-1 pos; conditions: ATCC BAA-2146
Method in brief: as §1

[5] = tested on: K. pneumoniae ATCC 13883; conditions: ATCC 13883
Method in brief: as §1

[6] = tested on: P. aeruginosa ATCC 27853; conditions: ATCC 27853
Method in brief: as §1

[7] = in vitro; conditions: human; remark: listed apart in the source
Method in brief: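 Compound exposure lasted 24 h, following 24 h attachment of 4000 cells/well at 37° C under 5% CO2.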

[8] = tested on: P. aeruginosa GN_105, PmxR; conditions: GN 105, PmxR
Method in brief: as §1

[9] = tested on: P. aeruginosa GN_043, PmxR
Method in brief: as §1

[10] = tested on: K. pneumoniae GN_102 PmxR; conditions: GN 102 PmxR
Method in brief: as §1

[11] = tested on: S. aureus ATCC 25923, MSSA; conditions: ATCC 25923
Method in brief: as §1

[12] = tested on: K. pneumoniae GN_106, PmxR; conditions: GN 106, PmxR
Method in brief: as §1

[13] = tested on: A. baumannii ATCC 19606; conditions: ATCC 19606
Method in brief: as §1

[14] = tested on: A. baumannii GN_093 PmxR; conditions: GN 093 PmxR
Method in brief: as §1

| SMILES | CC50 at 24 h [1] [µM] | MIC E. coli ATCC 25922 [2] [µg/mL] | MIC K. pneumoniae ATCC 700603, MDR [3] [µg/mL] | MIC K. pneumoniae ATCC BAA-2146, NDM-1 pos [4] [µg/mL] | MIC K. pneumoniae ATCC 13883 [5] [µg/mL] | MIC P. aeruginosa ATCC 27853 [6] [µg/mL] | CC50 at 24 h [7] [µM] | MIC P. aeruginosa GN_105, PmxR [8] [µg/mL] | MIC P. aeruginosa GN_043, PmxR [9] [µg/mL] | MIC K. pneumoniae GN_102 PmxR [10] [µg/mL] | MIC S. aureus ATCC 25923, MSSA [11] [µg/mL] | MIC K. pneumoniae GN_106, PmxR [12] [µg/mL] | MIC A. baumannii ATCC 19606 [13] [µg/mL] | MIC A. baumannii GN_093 PmxR [14] [µg/mL] | MIC P. aeruginosa GN_043, PmxR ([9]; P. aeruginosa GN_043, PmxR) [µg/mL] | MIC P. aeruginosa GN_043, PmxR ([9]; polymyxin-resistant) [µg/mL] |
| --- | --- | --- | --- | --- | --- | --- | --- | --- | --- | --- | --- | --- | --- | --- | --- | --- |
| CCCCCCC[C@@H](O)CC(=O)N[C@H](CCN)C(=O)N[C@H]1CCNC(=O)[C@H]([C@@H](C)O)NC(=O)[C@H](CCCNC(=N)N)NC(=O)[C@H](CCN)NC(=O)[C@H](CC(C)C)NC(=O)[C@@H](Cc2ccccc2)NC(=O)[C@H](CCN)NC1=O [compound 5606, 3(R)OH-nC9CO-D-Dab-cyc[L-Dab-L-Dab-D-Phe-L-Leu-L-Dab-L-Arg-L-Thr]] ({Decanoyl(3R-OH)}-[dDab][Dab][Dab][dF]L[Dab]RT; lactam 2-C) | 137 | >32 | 16 (≈ 14.7 µM) | >32 | 32 (≈ 29.4 µM) | 2 (≈ 1.84 µM) | – | – | – | – | – | – | – | – | – | – |
| CCCCCCC[C@@H](O)CC(=O)N[C@H](CCN)C(=O)N[C@H]1CCNC(=O)[C@H]([C@@H](C)O)NC(=O)[C@H](Cc2ccc(N)cc2)NC(=O)[C@H](CCN)NC(=O)[C@H](CC(C)C)NC(=O)[C@@H](Cc2ccccc2)NC(=O)[C@H](CCN)NC1=O [compound 5605, 3(R)OH-nC9CO-D-Dab-cyc[L-Dab-L-Dab-D-Phe-L-Leu-L-Dab-L-4NH2Phe-L-Thr]] ({Decanoyl(3R-OH)}-[dDab][Dab][Dab][dF]L[Dab][Phe(4-NH2)]T; lactam 2-C) | 115 | 16 (≈ 14.6 µM) | 32 (≈ 29.2 µM) | 16 (≈ 14.6 µM) | 16 (≈ 14.6 µM) | 8 (≈ 7.31 µM) | – | – | – | – | – | – | – | – | – | – |
| CC(C)C[C@@H]1NC(=O)[C@H](CCN)NC(=O)[C@H](CCN)NC(=O)[C@H](CC(C)C)NC(=O)[C@@H](Cc2ccccc2)NC(=O)[C@H](CCN)NC(=O)[C@@H](NC(=O)[C@@H](CCN)NC(=O)c2ccc(-c3ccccc3)cc2)CCNC1=O [compound 6526, Ph-4-PhCO-D-Dab-cyc[L-Dab-L-Dab-D-Phe-L-Leu-L-Dab-L-Dab-L-Leu]] ({Benzoyl(4-Ph)}-[dDab][Dab][Dab][dF]L[Dab][Dab]L; lactam 2-C) | – | 8 (≈ 7.59 µM) | 8 (≈ 7.59 µM) | 8 (≈ 7.59 µM) | 8 (≈ 7.59 µM) | 2 (≈ 1.9 µM) | > 300 | 4 (≈ 3.79 µM) | 1 (≈ 0.948 µM) | 32 (≈ 30.4 µM) | >32 | >32 | >32 | >32 | – | – |
| CCCCCCC[C@@H](O)CC(=O)N[C@H](CCN)C(=O)N[C@H]1CCNC(=O)[C@H](CC(C)C)NC(=O)[C@H](CCN)NC(=O)[C@H](CCN)NC(=O)[C@@H](Cc2ccccc2)NC(=O)[C@H](CC(C)C)NC(=O)[C@H](CCN)NC1=O [compound 9194, 3(R)-OH-nC9CO-D-Dab-cyc[L-Dab-L-Dab-L-Leu-D-Phe-L-Dab-L-Dab-L-Leu]] ({Decanoyl(3R-OH)}-[dDab][Dab][Dab]L[dF][Dab][Dab]L; lactam 2-C) | – | 32 (≈ 30.6 µM) | >32 | >32 | >32 | 32 (≈ 30.6 µM) | > 300 | >32 | – | >32 | 32 (≈ 30.6 µM) | >32 | >32 | >32 | >32 | – |
| CCCCCCC[C@@H](O)CC(=O)N[C@H](CCN)C(=O)N[C@H]1CCNC(=O)[C@H](Cc2c[nH]cn2)NC(=O)[C@H](CCN)NC(=O)[C@H](CCN)NC(=O)[C@H](CC(C)C)NC(=O)[C@@H](Cc2ccccc2)NC(=O)[C@H](CCN)NC1=O [compound 8911, 3(R)OH-nC9CO-D-Dab-cyc[L-Dab-L-Dab-D-Phe-L-Leu-L-Dab-L-Dab-L-His]] ({Decanoyl(3R-OH)}-[dDab][Dab][Dab][dF]L[Dab][Dab]H; lactam 2-C) | – | 8 (≈ 7.49 µM) | 8 (≈ 7.49 µM) | 16 (≈ 15 µM) | >32 | 2 (≈ 1.87 µM) | > 300 | 16 (≈ 15 µM) | – | >32 | >32 | 32 (≈ 30 µM) | >32 | >32 | – | 2 (≈ 1.87 µM) |
| CCCCCCC[C@@H](O)CC(=O)N[C@H](CCN)C(=O)N[C@H]1CCCCNC(=O)[C@H](CC(C)C)NC(=O)[C@H](CCN)NC(=O)[C@H](CCN)NC(=O)[C@H](CC(C)C)NC(=O)[C@@H](Cc2ccccc2)NC(=O)[C@H](CCN)NC1=O [compound 5382, 3(R)OH-nC9CO-D-Dab-cyc[L-Lys-L-Dab-D-Phe-L-Leu-L-Dab-L-Dab-L-Leu]] ({Decanoyl(3R-OH)}-[dDab]K[Dab][dF]L[Dab][Dab]L; lactam 2-C) | – | 4 (≈ 3.73 µM) | 8 (≈ 7.46 µM) | 8 (≈ 7.46 µM) | 8 (≈ 7.46 µM) | 4 (≈ 3.73 µM) | > 300 | 2 (≈ 1.86 µM) | – | >32 | 32 (≈ 29.8 µM) | >32 | 32 (≈ 29.8 µM) | >32 | 2 (≈ 1.86 µM) | – |
| CCCCCCC[C@@H](O)CC(=O)N[C@H](CN)C(=O)N[C@H]1CCNC(=O)[C@H](Cc2c[nH]c3ccccc23)NC(=O)[C@H](CCCNC(=N)N)NC(=O)[C@H](CCCCN)NC(=O)[C@H](CC(C)C)NC(=O)[C@@H](C2Cc3ccccc3C2)NC(=O)[C@H](CCN)NC1=O [compound 8896, 3(R)OH-nC9CO-D-Dap-cyc[L-Dab-L-Dab-D-indanylgly-L-Leu-L-Lys-L-Arg-L-Trp]] ({Decanoyl(3R-OH)}-[dDap][Dab][Dab][dIgl]LKRW; lactam 2-C) | – | 2 (≈ 1.65 µM) | 2 (≈ 1.65 µM) | 2 (≈ 1.65 µM) | 8 (≈ 6.59 µM) | 4 (≈ 3.3 µM) | 102 | 2 (≈ 1.65 µM) | – | 16 (≈ 13.2 µM) | 2 (≈ 1.65 µM) | 4 (≈ 3.3 µM) | 8 (≈ 6.59 µM) | 16 (≈ 13.2 µM) | – | 4 (≈ 3.3 µM) |
| CCCCCCCCC(=O)N[C@H](CN)C(=O)N[C@H]1CCNC(=O)[C@H](CC(C)C)NC(=O)[C@H](CCN)NC(=O)[C@H](CCN)NC(=O)[C@H](CC(C)C)NC(=O)[C@@H](Cc2ccccc2)NC(=O)[C@H](CCN)NC1=O [compound 9191, nC8CO-D-Dap-cyc[L-Dab-L-Dab-D-Phe-L-Leu-L-Dab-L-Dab-L-Leu]] (Nonanoyl-[dDap][Dab][Dab][dF]L[Dab][Dab]L; lactam 2-C) | – | 4 (≈ 4 µM) | 8 (≈ 8 µM) | 8 (≈ 8 µM) | 8 (≈ 8 µM) | 4 (≈ 4 µM) | > 300 | 2 (≈ 2 µM) | – | 8 (≈ 8 µM) | 32 (≈ 32 µM) | 16 (≈ 16 µM) | >32 | >32 | 2 (≈ 2 µM) | – |

— patent US11279733B2, “Peptide antibiotics” (priority 2017, dated 2022)
